The source of these data is patent US20120277264A1, “ANTITHROMBOTIC AGENT” (Taiho Pharmaceutical Co., Ltd., priority 2009, published 2012).

Series [1] has as its system thrombus formation in the arteria testicularis. The series is described as follows: Thrombus formation inhibition, combined use with cilostazol (FeCl3-induced thrombus, Test Example 3). It is filed as in vivo. Particulars: male ICR mice, control 12±3 minutes, P<0.05 vs. cont. The procedure: Male ICR mice (ten weeks old) were used. Rhodamine 6G (platelet fluorescence-labeling agent) was administered to the tail vein under anesthesia. With the abdomen open, the arteria testicularis was subjected to FeCl3 treatment to induce thrombus formation. Thrombus formation was observed by a real time color three-dimensional observation device, and thrombus formation time was measured. Suplatast tosilate (IPD) (10 mg/kg) was dissolved in water and orally administered for 7 days before amputating the tail to the group that was given IPD alone. Cilostazol (10 mg/kg, 30 mg/kg, 100 mg/kg), a platelet aggregation inhibitor, was dissolved in water and orally administered in a single dose one hour before amputating the tail to the group that was given cilostazol alone. To the combination group of IPD and cilostazol, IPD (10 mg/kg) was orally administered for 7 days, and cilostazol (10 mg/kg) was orally administered in a single dose one hour before amputating the tail on the 7th day of the IPD administration.

Series [2] has the same test system. The series is described as follows: Thrombus formation inhibitory action (FeCl3-induced thrombus, Test Example 1). The settings on record: male ICR mice; for large thrombus formation time: control about 14 minutes. It is filed as in vivo. How it is done:
Male ICR mice (ten weeks old) were used. Rhodamine 6G (platelet fluorescence-labeling agent) was administered to the tail vein under anesthesia. With the abdomen open, the arteria testicularis was subjected to FeCl3 treatment to induce thrombus formation. Thrombus formation was observed by a real time color three-dimensional observation device, and the thrombus formation time was measured. Suplatast tosilate (IPD), the compound of the present invention, was dissolved in water and orally administered in a single dose (100 mg/kg) 30 minutes before the FeCl3 treatment or for 7 consecutive days (100 mg/kg, 30 mg/kg, 10 mg/kg) before the FeCl3 treatment. In addition, as a control drug, tirofiban (0.3 μmol/kg) was intravenously administered.

A short description of series [3]: Amount of bleeding after tail amputation (side effect, Test Example 2). It is filed as in vivo, mice. How it is done: Male ICR mice (ten weeks old) were used. The last 2 mm of the tail was amputated with a scalpel under pentobarbital anesthesia, and the tail 2 cm from the tip was immediately immersed in 10 mL of physiological saline at 37° C. Twenty minutes later, the tail was removed from the physiological saline, and 1 mL of Triton X-100 (25% in water) was added. The absorbance at 546 nm was measured, and the amount of bleeding was determined from a calibration curve. Suplatast tosilate (IPD, 100 mg/kg), the compound of the present invention, and a control drug, warfarin (10 mg/kg) were dissolved in distilled water and orally administered in a single dose one hour before amputating the tail, or orally administered for 7 consecutive days before amputating the tail. Distilled water was administered to the control.

For `O=C1CCc2cc(OCCCCc3nnnn3C3CCCCC3)ccc2N1` [cilostazol], the thrombus formation time in series [1] (cilostazol alone, oral single dose (10, 30, 100 mg/kg tested; dose of this value not stated)) was found to be 25 ± 5 min.

As to `CCCCS(=O)(=O)N[C@@H](Cc1ccc(OCCCCC2CCNCC2)cc1)C(=O)O` [tirofiban], the “large thrombus formation time” value in series [2] (0.3 μmol/kg intravenously, after FeCl3 stimulation) was determined as 60 min.

With `CC(=O)CC(c1ccccc1)c1c(O)c2ccccc2oc1=O` (centres unmarked) [warfarin], the amount of bleeding result was “notable effect of increasing the amount of bleeding” in series [3] (male ICR mice, 10 mg/kg orally for 7 consecutive days before amputating the tail) and “notable effect of increasing the amount of bleeding” in series [3] (male ICR mice, 10 mg/kg orally, single dose one hour before amputating the tail).

`CCOCC(O)COc1ccc(NC(=O)CC[S+](C)C)cc1.Cc1ccc(S(=O)(=O)[O-])cc1` (racemic) [IPD, (±)-[2-[4-(3-ethoxy-2-hydroxypropoxy)phenylcarbamoyl]ethyl]dimethylsulfonium p-toluenesulfonate]: the amount of bleeding result in series [3] (mouse, in vivo, po, 100 mg/kg) was “did not have a significant effect on the amount of bleeding”. Moreover, the thrombus formation time in series [1] (IPD alone 10 mg/kg orally for 7 days) stood at 36 ± 11 min. Moreover, the “large thrombus formation time” value in series [2] (100 mg/kg orally, single dose 30 minutes before FeCl3 treatment) came to 45 min. The “large thrombus formation inhibitory action” value in series [2] (oral administration for 7 consecutive days (100, 30, 10 mg/kg) vs single dose) was “clearly enhanced”.
